Patent publication US5252749A, “Ethers of thienocyclopentanone oximes, their preparation and pharmaceutical compositions containing them” (Elf Sanofi, priority 1991, dated 1993)

Columns and labels:
[1] = tested on: 5HT3 receptors; settings: rats, Bezold-Jarisch reflex; compounds studied in J. Pharm. Pharmacol. 40, 301-302 (1988); cited from earlier work
[2] = target: T1, 5HT1D receptors (Bos taurus, UniProt F1MGM3); assay: Displacement of tritiated serotonin from 5HT1D receptors on membrane preparations of bovine caudate nuclei; settings: bovine caudate nuclei membranes, in vitro, read-out: concentration which inhibits 50% of the binding of the tritiated compound (IC50)
T1 construct: membrane preparations of bovine caudate nuclei; from tissue; host or cells: bovine caudate nuclei, membrane preparation

[3] = tested on: 5HT1A receptor; settings: Headache 29, 420-422, July 1989; cited from earlier work
[4] = in man; cited from earlier work
[5] = tested on: 5HT1D receptor; settings: Headache 29, 420-422, July 1989; cited from earlier work

T1 sequence (F1MGM3 1-403): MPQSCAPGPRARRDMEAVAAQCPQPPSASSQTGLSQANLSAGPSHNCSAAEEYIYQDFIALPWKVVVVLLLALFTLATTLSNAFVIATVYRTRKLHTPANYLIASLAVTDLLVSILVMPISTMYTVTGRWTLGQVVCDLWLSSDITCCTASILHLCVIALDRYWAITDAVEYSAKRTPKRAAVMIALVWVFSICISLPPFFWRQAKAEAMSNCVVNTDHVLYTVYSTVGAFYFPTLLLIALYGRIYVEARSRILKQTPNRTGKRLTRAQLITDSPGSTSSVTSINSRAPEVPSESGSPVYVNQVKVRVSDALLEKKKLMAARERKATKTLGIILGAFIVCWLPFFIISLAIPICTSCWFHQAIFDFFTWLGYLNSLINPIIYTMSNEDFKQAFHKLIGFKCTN

IC50 [2] | SMILES | dose which inhibits 50% of the serotonin activity (ID50) [1] | agonist activity at the 5HT1A receptor [3] | antimigraine activity [4] | agonist activity at the 5HT1D receptor [5]
 | CN1[C@@H]2CC[C@H]1CC(OC(=O)c1c[nH]c3ccccc13)C2 (stereo partly shown) [ICS 205-930] | approximately 1 μg/kg |  |  | 
~100 nM | CNS(=O)(=O)Cc1ccc2[nH]cc(CCN(C)C)c2c1 [sumatriptan] |  | weak agonist of the 5HT1A receptor | marked antimigraine activity in man | powerful agonist of the 5HT1D receptor
 | CCN(CC)CCNC(=O)c1cc(Cl)c(N)cc1OC [metoclopramide] | ~400 µg/kg |  |  | 
 | COc1cc(N)c(Cl)cc1C(=O)NC1CN2CCC1CC2 (stereo not shown) [zacopride] | ~0.25 µg/kg |  |  | 
